Measurements published in patent US11059824B2, “Substituted purines as TLR7 agonists” (Primmune Therapeutics, Inc., priority 2018, dated 2021).
Values joined by “and” are separate entries in the source; they are usually repeats but may differ in a detail not shown here. Equal values may be shown once. Where a name gives a salt, the structure may show the parent alone. Marks after values point to notes of the source that are not given here.

Assays:
human TLR7 = human TLR7 (Homo sapiens (Human), UniProt Q9NYK1); assay: TLR7 reporter assay (HEK293-TLR-NF-κB inducible SEAP reporter); type: cell-based; details: HEK293 cells stably expressing human TLR7 with NF-κB-driven SEAP reporter; 15-24 hours
human TLR7, sequence (Q9NYK1 27-1049): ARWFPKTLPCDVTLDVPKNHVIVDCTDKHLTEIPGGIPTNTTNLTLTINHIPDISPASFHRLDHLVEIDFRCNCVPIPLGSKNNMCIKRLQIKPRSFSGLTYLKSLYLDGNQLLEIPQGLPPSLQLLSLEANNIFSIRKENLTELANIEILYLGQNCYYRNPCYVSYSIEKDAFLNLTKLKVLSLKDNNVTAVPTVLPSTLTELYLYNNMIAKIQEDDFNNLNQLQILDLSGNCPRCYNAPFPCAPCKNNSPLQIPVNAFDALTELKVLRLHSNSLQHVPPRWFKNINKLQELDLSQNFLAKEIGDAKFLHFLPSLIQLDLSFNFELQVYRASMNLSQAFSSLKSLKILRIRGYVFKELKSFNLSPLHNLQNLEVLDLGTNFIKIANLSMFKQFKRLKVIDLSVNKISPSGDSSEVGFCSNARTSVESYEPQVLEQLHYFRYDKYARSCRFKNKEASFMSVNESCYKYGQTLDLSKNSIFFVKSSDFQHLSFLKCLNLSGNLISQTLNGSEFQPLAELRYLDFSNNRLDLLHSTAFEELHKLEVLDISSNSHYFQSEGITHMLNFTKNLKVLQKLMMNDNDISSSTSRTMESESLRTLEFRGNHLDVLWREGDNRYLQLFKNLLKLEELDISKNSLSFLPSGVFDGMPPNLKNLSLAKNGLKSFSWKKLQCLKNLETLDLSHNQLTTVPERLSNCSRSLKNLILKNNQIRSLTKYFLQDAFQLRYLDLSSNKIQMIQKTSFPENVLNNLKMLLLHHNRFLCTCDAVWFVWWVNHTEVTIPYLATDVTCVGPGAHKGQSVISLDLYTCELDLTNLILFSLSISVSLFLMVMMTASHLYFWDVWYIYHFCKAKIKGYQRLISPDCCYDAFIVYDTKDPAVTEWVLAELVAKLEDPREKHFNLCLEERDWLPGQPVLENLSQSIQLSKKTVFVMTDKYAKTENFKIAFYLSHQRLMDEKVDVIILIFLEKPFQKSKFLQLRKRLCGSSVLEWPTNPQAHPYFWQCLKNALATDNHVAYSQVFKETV
Description: The engagement of TLRs by cognate ligands triggers downstream signaling cascades, leading to the activation of NF-κB and other transcription factors which initiate various immunomodulatory effects. The human embryonic kidney cell line, HEK293, is essentially non-responsive to TLR agonists, but ectopic expression of TLRs in these cells allows cognate agonists to activate endogenous NF-κB. Accordingly, the HEK293-TLR-NF-κB inducible reporter system is used to assay TLR agonists. HEK293 cell lines stably expressing human TLR7 or TLR8 together with an NF-κB-driven-secreted alkaline phosphatase (SEAP) reporter were invented at InvivoGen (San Diego, Calif., USA) and used to assess compounds of the present invention for TLR7 and TLR8 agonist activities. Cells were seeded at 2-5×10^4 cells/well in 96 well plates ([…]) and treated with various concentrations of compound (10 μl) for 15-24 hours. SEAP activity was determined by measuring OD at 650 nm; the media used to culture the cell lines contains the reagents required for SEAP detection. The EC50 values in Table 2 are calculated from fitting the dose response of measured SEAP activity for each compound to the following equation: Y=ymax*c^nh/(EC50^nh+c^nh)+blank where Y is the experimentally measured OD650 at concentration c of test article, blank is the observed OD650 in the absence of TLR7 agonist, ymax is the difference between the measured OD650 in the presence of either 28.5 μM resiquimod or 1.675 μM CL307 and the blank and values of EC50 and nh are determined by nonlinear least squares analysis.

[1] = tested on: interferon-α production in hPBMCs; assay: Induction of interferon-α production in hPBMCs; type: cell-based, human; details: interferon-α production from hPBMCs; for Weighted MEC: geometric mean of all individual MECs across all donors, 24 hours; for individual MEC values: per donor
Protocol: Treatment of hPBMCs with a TLR7 agonist typically induces substantial production of interferon-α as well as lesser amounts of a variety of other cytokines and chemokines. A typical experiment uses hPBMCs isolated from a healthy donor and placed in replicate cell culture wells; typically 1.0-7.5×10^6 cells are placed in each well. Test compound is added and the cells cultured for 24 hours at 37° C. in a humidified atmosphere containing 5% CO2 post-addition; untreated controls are included. Secreted interferon-α production is measured using an a multisubtype interferon-α ELISA kit like those from PBL Assay Sciences or specifically as IFNα2a as part of a panel of cytokines and chemokines using luminex methodologies. The minimal effective concentration (MEC) is the minimum concentration in a dose response curve where a significant increase in interferon-α production (generally at least 20 pg/ml) is observed above baseline. MEC values for each compound are determined for at least three donors. The weighted MEC for each compound is the geometric mean of all individual MECs across all donors. Concentrations tested typically consist of a two-fold dilution series starting at 100 μM. In the calculation of weighted MEC, any value >100 μM is arbitrarily set to 200 μM unless all MECs for a compound exceed 100 μM

EC50 (human TLR7)	SMILES	Weighted MEC [1]	individual MEC values [1]
298 µM	C=CCn1c(=O)n([C@@H]2O[C@H](CO)[C@H](O)[C@H]2O)c2nc(N)[nH]c(=O)c21 [Compound 2, 7-Allyl-2-amino-9-((2R,3R,4R,5R)-3,4-dihydroxy-5-(hydroxymethyl)tetrahydrofuran-2-yl)-7,9-dihydro-1H-purine-6,8-dione]	79 µM	
835 µM	CC#CCn1c(=O)n([C@@H]2O[C@H](CO)[C@H](O)[C@H]2O)c2nc(N)[nH]c(=O)c21 [Compound 6, 2-Amino-7-(but-2-yn-1-yl)-9-((2R,3R,4R,5R)-3,4-dihydroxy-5-(hydroxymethyl)tetrahydrofuran-2-yl)-7,9-dihydro-1H-purine-6,8-dione]	79 µM	
535 µM	C/C=C/Cn1c(=O)n([C@@H]2O[C@H](CO)[C@H](O)[C@H]2O)c2nc(N)[nH]c(=O)c21 [Compound 7, 2-Amino-7-((E)-but-2-en-1-yl)-9-((2R,3R,4R,5R)-3,4-dihydroxy-5-(hydroxymethyl)tetrahydrofuran-2-yl)-7,9-dihydro-1H-purine-6,8-dione]	63 µM	
413 µM	Nc1nc2c(c(=O)[nH]1)n(C/C=C/CO)c(=O)n2[C@@H]1O[C@H](CO)[C@H](O)[C@H]1O [Compound 8, 2-Amino-9-((2R,3R,4R,5R)-3,4-dihydroxy-5-(hydroxymethyl)tetrahydrofuran-2-yl)-7-((E)-4-hydroxybut-2-en-1-yl)-7,9-dihydro-1H-purine-6,8-dione]	>100* μM	
15 µM	Nc1nc2c(c(=O)[nH]1)n(C/C=C/C(=O)O)c(=O)n2[C@@H]1O[C@H](CO)[C@H](O)[C@H]1O [Compound 9, (E)-4-(2-Amino-9-((2R,3R,4R,5R)-3,4-dihydroxy-5-(hydroxymethyl)tetrahydrofuran-2-yl)-6,8-dioxo-1,6,8,9-tetrahydro-7H-purin-7-yl)but-2-enoic Acid]	>100* μM	
248 µM	COC(=O)/C=C/Cn1c(=O)n([C@@H]2O[C@H](CO)[C@H](O)[C@H]2O)c2nc(N)[nH]c(=O)c21 [Compound 10, Methyl (E)-4-(2-amino-9-((2R,3R,4R,5R)-3,4-dihydroxy-5-(hydroxymethyl)tetrahydrofuran-2-yl)-6,8-dioxo-1,6,8,9-tetrahydro-7H-purin-7-yl)but-2-enoate]	>100* μM	
249 µM	Nc1nc2c(c(=O)[nH]1)n(CC#CCO)c(=O)n2[C@@H]1O[C@H](CO)[C@H](O)[C@H]1O [Compound 11, 2-Amino-9-((2R,3R,4R,5R)-3,4-dihydroxy-5-(hydroxymethyl)tetrahydrofuran-2-yl)-7-(4-hydroxybut-2-yn-1-yl)-7,9-dihydro-1H-purine-6,8-dione]	79 µM	
407 µM	COC(=O)Cn1c(=O)n([C@@H]2O[C@H](CO)[C@H](O)[C@H]2O)c2nc(N)[nH]c(=O)c21 [Compound 12, Methyl 2-(2-amino-9-((2R,3R,4R,5R)-3,4-dihydroxy-5-(hydroxymethyl)tetrahydrofuran-2-yl)-6,8-dioxo-1,6,8,9-tetrahydro-7H-purin-7-yl)acetate]	>100* μM	
151 µM	Nc1nc2c(c(=O)[nH]1)n(CC(F)(F)F)c(=O)n2[C@@H]1O[C@H](CO)[C@H](O)[C@H]1O [Compound 13, 2-Amino-9-((2R,3R,4R,5R)-3,4-dihydroxy-5-(hydroxymethyl)tetrahydrofuran-2-yl)-7-(2,2,2-trifluoroethyl)-7,9-dihydro-1H-purine-6,8-dione]	66* μM	
180 µM	Nc1nc2c(c(=O)[nH]1)n(CC(F)F)c(=O)n2[C@@H]1O[C@H](CO)[C@H](O)[C@H]1O [Compound 14, 2-Amino-7-(2,2-difluoroethyl)-9-((2R,3R,4R,5R)-3,4-dihydroxy-5-(hydroxymethyl)tetrahydrofuran-2-yl)-7,9-dihydro-1H-purine-6,8-dione]	100* μM	
> 500 µM	Cn1c(=O)n([C@@H]2O[C@H](CO)[C@H](O)[C@H]2O)c2nc(N)[nH]c(=O)c21 [Compound 15, 2-Amino-9-((2R,3R,4R,5R)-3,4-dihydroxy-5-(hydroxymethyl)tetrahydrofuran-2-yl)-7-methyl-7,9-dihydro-1H-purine-6,8-dione]		
534 µM	CCn1c(=O)n([C@@H]2O[C@H](CO)[C@H](O)[C@H]2O)c2nc(N)[nH]c(=O)c21 [Compound 16, 2-Amino-9-((2R,3R,4R,5R)-3,4-dihydroxy-5-(hydroxymethyl)tetrahydrofuran-2-yl)-7-ethyl-7,9-dihydro-1H-purine-6,8-dione]	>100* μM	
337 µM	CCCn1c(=O)n([C@@H]2O[C@H](CO)[C@H](O)[C@H]2O)c2nc(N)[nH]c(=O)c21 [Compound 17, 2-Amino-9-((2R,3R,4R,5R)-3,4-dihydroxy-5-(hydroxymethyl)tetrahydrofuran-2-yl)-7-propyl-7,9-dihydro-1H-purine-6,8-dione]	100* μM	
330 µM	CCCCn1c(=O)n([C@@H]2O[C@H](CO)[C@H](O)[C@H]2O)c2nc(N)[nH]c(=O)c21 [Compound 18, 2-Amino-7-butyl-9-((2R,3R,4R,5R)-3,4-dihydroxy-5-(hydroxymethyl)tetrahydrofuran-2-yl)-7,9-dihydro-1H-purine-6,8-dione]	less than or equal to 40 μM and 37 μM	< 100 µM
491 µM	Nc1nc2c(c(=O)[nH]1)n(CCCCO)c(=O)n2[C@@H]1O[C@H](CO)[C@H](O)[C@H]1O [Compound 19, 2-Amino-9-((2R,3R,4R,5R)-3,4-dihydroxy-5-(hydroxymethyl)tetrahydrofuran-2-yl)-7-(4-hydroxybutyl)-7,9-dihydro-1H-purine-6,8-dione]	>100* μM	
79 µM	Nc1nc2c(c(=O)[nH]1)n(CCCC(=O)O)c(=O)n2[C@@H]1O[C@H](CO)[C@H](O)[C@H]1O [Compound 20, 4-(2-Amino-9-((2R,3R,4R,5R)-3,4-dihydroxy-5-(hydroxymethyl)tetrahydrofuran-2-yl)-6,8-dioxo-1,6,8,9-tetrahydro-7H-purin-7-yl)butanoic Acid]	>100* μM	
520 µM	COC(=O)CCCn1c(=O)n([C@@H]2O[C@H](CO)[C@H](O)[C@H]2O)c2nc(N)[nH]c(=O)c21 [Compound 21, Methyl 4-(2-amino-9-((2R,3R,4R,5R)-3,4-dihydroxy-5-(hydroxymethyl)tetrahydrofuran-2-yl)-6,8-dioxo-1,6,8,9-tetrahydro-7H-purin-7-yl)butanoate]	>100* μM	
567 µM	COCCn1c(=O)n([C@@H]2O[C@H](CO)[C@H](O)[C@H]2O)c2nc(N)[nH]c(=O)c21 [Compound 22, 2-Amino-9-((2R,3R,4R,5R)-3,4-dihydroxy-5-(hydroxymethyl)tetrahydrofuran-2-yl)-7-(2-methoxyethyl)-7,9-dihydro-1H-purine-6,8-dione]	>100* μM	
> 500 µM	NCCn1c(=O)n([C@@H]2O[C@H](CO)[C@H](O)[C@H]2O)c2nc(N)[nH]c(=O)c21 [Compound 23, 2-Amino-7-(2-aminoethyl)-9-((2R,3R,4R,5R)-3,4-dihydroxy-5-(hydroxymethyl)tetrahydrofuran-2-yl)-7,9-dihydro-1H-purine-6,8-dione hydrochloride]		
470 µM	C#CCn1c(=O)n([C@@H]2O[C@H](CO)[C@H](F)[C@H]2O)c2nc(N)[nH]c(=O)c21 [Compound 28, 2-Amino-9-((2R,3S,4R,5R)-4-fluoro-3-hydroxy-5-(hydroxymethyl)tetrahydrofuran-2-yl)-7-(prop-2-yn-1-yl)-7,9-dihydro-1H-purine-6,8-dione]	less than or equal to 40 μM and 33 μM	< 100 µM
688 µM	Nc1nc2c(c(=O)[nH]1)n(Cc1ccccc1)c(=O)n2[C@@H]1O[C@H](CO)C[C@H]1O [Compound 33, 2-Amino-7-benzyl-9-((2R,3R,5S)-3-hydroxy-5-(hydroxymethyl)tetrahydrofuran-2-yl)-7,9-dihydro-1H-purine-6,8-dione]	79* μM	
